# ChEMBL document CHEMBL5528010, “The discovery of aryl-2-nitroethyl triamino pyrimidines as anti-Trypanosoma brucei agents” (Eur J Med Chem, 2024)
# System: not listed separately
# Assay: Selectivity index, ratio of CC50 for human THP-1 cells to EC50 for bloodstream form Trypanosoma brucei
# Assay type: toxicity
# Conditions: read-out: Ratio CC50/EC50
row,SMILES,selectivity ratio
1,Nc1nc(N)c(C(C[N+](=O)[O-])c2ccc(Br)cc2)c(N)n1 (configuration not stated),16
2,Nc1nc(N)c(C(C[N+](=O)[O-])c2cccs2)c(N)n1 (configuration not stated),15
3,Nc1nc(N)c(C(C[N+](=O)[O-])c2ccccc2OCc2ccccc2)c(N)n1 (configuration not stated),> 167
4,COc1cc(C(C[N+](=O)[O-])c2c(N)nc(N)nc2N)ccc1O (configuration not stated),23
5,Nc1nc(N)c(C(C[N+](=O)[O-])c2ccc(Cl)cc2)c(N)n1 (configuration not stated),19
6,COc1cccc(OC)c1C(C[N+](=O)[O-])c1c(N)nc(N)nc1N (configuration not stated),7
7,Nc1nc(N)c(C(C[N+](=O)[O-])c2cccc(Br)c2)c(N)n1 (configuration not stated),118

# System: Leishmania infantum
# Assay: Antiparasitic activity against Leishmania infantum intracellular amastigotes MHOM/BR/1972/BH46 infected in human THP-1 cells assessed as inhibition of parasitic growth at 50 uM pre-infected for 24 hrs followed by compound addition and measured after 48 hrs relative to control
# Assay type: functional
# Conditions: MHOM/BR/1972/BH46, THP-1
row,SMILES,inhibition at 50 µM [%]
1,CCCCCCCCCCCCCCCCOP(=O)([O-])OCC[N+](C)(C)C [MILTEFOSINE],1.29
2,Nc1nc(N)c(C(C[N+](=O)[O-])c2ccc(Br)cc2)c(N)n1 (configuration not stated),83.4
3,Nc1nc(N)c(C(C[N+](=O)[O-])c2ccccc2OCc2ccccc2[N+](=O)[O-])c(N)n1 (configuration not stated),11.7
4,Nc1nc(N)c(C(C[N+](=O)[O-])c2cccs2)c(N)n1 (configuration not stated),22.5
5,Nc1nc(N)c(C(C[N+](=O)[O-])c2ccccc2OCc2ccccc2)c(N)n1 (configuration not stated),81.1
6,COc1cc(C(C[N+](=O)[O-])c2c(N)nc(N)nc2N)ccc1O (configuration not stated),21.6
7,COc1cccc(OC)c1C(C[N+](=O)[O-])c1c(N)nc(N)nc1N (configuration not stated),79.8
8,Nc1nc(N)c(C(C[N+](=O)[O-])c2cccc(Br)c2)c(N)n1 (configuration not stated),30.2
9,Nc1nc(N)c(C(C[N+](=O)[O-])c2c[nH]c3ccccc23)c(N)n1 (configuration not stated),4

# System: not listed separately
# Assay: Inhibition of N-terminal his 6 tagged recombinant Trypanosoma brucei PTR1 expressed in Escherichia coli BL21 (DE3) cells preincubated for 10 mins followed by NADPH addition and measured after 10 to 50 mins by multilabel plate reader method
# Assay type: cell-based
# Conditions: not given
row,SMILES,IC50 [nM]
1,CCc1nc(N)nc(N)c1-c1ccc(Cl)cc1 [PYRIMETHAMINE],90
2,Nc1nc(N)c(C(C[N+](=O)[O-])c2ccc(Br)cc2)c(N)n1 (configuration not stated),< 100
3,Nc1nc(N)c(C(C[N+](=O)[O-])c2ccccc2OCc2ccccc2[N+](=O)[O-])c(N)n1 (configuration not stated),260
4,Nc1nc(N)c(C(C[N+](=O)[O-])c2cccs2)c(N)n1 (configuration not stated),190
5,Nc1cc(N)nc(N)n1,2380
6,Nc1nc(N)c(C(C[N+](=O)[O-])c2ccccc2OCc2ccccc2)c(N)n1 (configuration not stated),240
7,COc1cc(C(C[N+](=O)[O-])c2c(N)nc(N)nc2N)ccc1O (configuration not stated),70
8,Nc1nc(N)c(C(C[N+](=O)[O-])c2ccc(Cl)cc2)c(N)n1 (configuration not stated),< 100
9,COc1cccc(OC)c1C(C[N+](=O)[O-])c1c(N)nc(N)nc1N (configuration not stated),130
10,Nc1nc(N)c(C(C[N+](=O)[O-])c2cccc(Br)c2)c(N)n1 (configuration not stated),50
11,Nc1nc(N)c(C(C[N+](=O)[O-])c2c[nH]c3ccccc23)c(N)n1 (configuration not stated),< 100

# Target: T1, Pteridine reductase 1 (Leishmania major, UniProt Q01782)
# T1 sequence (Q01782 whole entry): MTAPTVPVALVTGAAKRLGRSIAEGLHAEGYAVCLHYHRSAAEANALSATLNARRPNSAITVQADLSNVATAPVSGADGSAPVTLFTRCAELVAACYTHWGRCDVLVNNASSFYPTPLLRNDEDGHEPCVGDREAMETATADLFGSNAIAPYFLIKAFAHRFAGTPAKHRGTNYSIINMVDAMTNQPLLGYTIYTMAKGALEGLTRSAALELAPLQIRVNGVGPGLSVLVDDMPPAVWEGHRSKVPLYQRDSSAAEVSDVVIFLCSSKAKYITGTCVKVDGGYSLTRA
# Assay: Inhibition of N-terminal his 6 tagged recombinant Leishmania major PTR1 expressed in Escherichia coli BL21 (DE3) cells preincubated for 10 mins followed by NADPH addition and measured after 10 to 50 mins by multilabel plate reader method
# Conditions: not given
row,IC50 [µM],SMILES
1,64.1,Nc1nc(N)c(C(C[N+](=O)[O-])c2ccc(Br)cc2)c(N)n1 (configuration not stated)
2,51.3,Nc1nc(N)c(C(C[N+](=O)[O-])c2ccccc2OCc2ccccc2)c(N)n1 (configuration not stated)
3,58.1,Nc1nc(N)c(C(C[N+](=O)[O-])c2cccc(Br)c2)c(N)n1 (configuration not stated)
4,13.9,Nc1nc(N)c(C(C[N+](=O)[O-])c2c[nH]c3ccccc23)c(N)n1 (configuration not stated)

# Second part, the compound before the results:
row,SMILES,IC50 [µM]
1,Nc1nc(N)c(C(C[N+](=O)[O-])c2ccccc2OCc2ccccc2[N+](=O)[O-])c(N)n1 (configuration not stated),46.2
2,Nc1nc(N)c(C(C[N+](=O)[O-])c2cccs2)c(N)n1 (configuration not stated),4.9
3,Nc1cc(N)nc(N)n1,4.01
4,COc1cc(C(C[N+](=O)[O-])c2c(N)nc(N)nc2N)ccc1O (configuration not stated),19.8
5,COc1cccc(OC)c1C(C[N+](=O)[O-])c1c(N)nc(N)nc1N (configuration not stated),70.7

# System: THP-1
# Assay: Cytotoxicity against human THP-1 cells assessed as reduction in cell viability measured after 72 hrs by MTT assay
# Assay type: functional
# Conditions: not given
row,SMILES,CC50 [µM]
1,Nc1nc(N)c(C(C[N+](=O)[O-])c2ccc(Br)cc2)c(N)n1 (configuration not stated),25
2,Nc1nc(N)c(C(C[N+](=O)[O-])c2cccs2)c(N)n1 (configuration not stated),50
3,Nc1nc(N)c(C(C[N+](=O)[O-])c2ccccc2OCc2ccccc2)c(N)n1 (configuration not stated),> 100
4,COc1cc(C(C[N+](=O)[O-])c2c(N)nc(N)nc2N)ccc1O (configuration not stated),50
5,Nc1nc(N)c(C(C[N+](=O)[O-])c2ccc(Cl)cc2)c(N)n1 (configuration not stated),25
6,COc1cccc(OC)c1C(C[N+](=O)[O-])c1c(N)nc(N)nc1N (configuration not stated),12.5
7,Nc1nc(N)c(C(C[N+](=O)[O-])c2cccc(Br)c2)c(N)n1 (configuration not stated),50

# System: Trypanosoma brucei
# Assay: Antiparasitic activity against blood stream form Trypanosoma brucei assessed as parasitic growth inhibition at 10 uM incubated for 72 hrs by resazurin dye based fluorescence analysis relative to control
# Assay type: functional
# Set-up: scale not given: the % may be the effect or the level left
# Conditions: not given
row,SMILES,Activity [%]
1,Nc1nc(N)c(C(C[N+](=O)[O-])c2ccccc2OCc2ccccc2[N+](=O)[O-])c(N)n1 (configuration not stated),48
2,Nc1nc(N)c(C(C[N+](=O)[O-])c2c[nH]c3ccccc23)c(N)n1 (configuration not stated),28

# System: Trypanosoma brucei
# Assay: Antiparasitic activity against blood stream form Trypanosoma brucei assessed as parasitic growth inhibition incubated for 72 hrs by resazurin dye based fluorescence analysis
# Assay type: functional, organism-based
# Conditions: not given
row,EC50 [nM],SMILES
1,1590,Nc1nc(N)c(C(C[N+](=O)[O-])c2ccc(Br)cc2)c(N)n1 (configuration not stated)
2,600,Nc1nc(N)c(C(C[N+](=O)[O-])c2ccccc2OCc2ccccc2)c(N)n1 (configuration not stated)
3,1280,Nc1nc(N)c(C(C[N+](=O)[O-])c2ccc(Cl)cc2)c(N)n1 (configuration not stated)
4,650,Nc1nc(N)c(C(C[N+](=O)[O-])c2cccc(Br)c2)c(N)n1 (configuration not stated)

# The remaining lines, values behind:
row,SMILES,EC50 [nM]
1,Nc1nc(N)c(C(C[N+](=O)[O-])c2cccs2)c(N)n1 (configuration not stated),3330
2,COc1cc(C(C[N+](=O)[O-])c2c(N)nc(N)nc2N)ccc1O (configuration not stated),2130
3,COc1cccc(OC)c1C(C[N+](=O)[O-])c1c(N)nc(N)nc1N (configuration not stated),1680
